Laboratory results published in PMC3561128, “Preclinical evaluation of carbon-11 and fluorine-18 sulfonamide derivatives for in vivo radiolabeling of erythrocytes” (EJNMMI Research, 2013).
Several values for one entry are separate records, joined by “and”; a condition that tells them apart may be missing. Equal values may be shown once. Read-outs that look alike come from different tables or passages of the source. Blank lines part the entries; values can stand above or below the compound they belong to.

Legend:
hCA I = hCA I (Homo sapiens, UniProt P00915); test: CA-catalyzed CO2 hydration, stopped-flow inhibition assay; format: biochemical; conditions: human (cloned) isozyme; CO2 hydration reaction at 20°C; n = 3
Experimental: (§1) Phenol red (0.2 mM) was used as indicator, working at the absorbance maximum of 557 nm, with 10 mM Hepes as buffer (pH 7.5) and 0.1 M Na2SO4 (for maintaining constant ionic strength) at 25°C following the CA-catalyzed CO2 hydration reaction for a period of 10 to 100 s (the uncatalyzed reaction needs around 60 to 100 s under assay conditions, whereas the catalyzed reactions take around 6 to 10 s). The CO2 concentrations ranged from 1.7 to 17 mM for the determination of kinetic parameters. Each compound was tested in the concentration range between 0.01 nM to 100 μM. The uncatalyzed rates were determined in the same manner and subtracted from the total observed rates. Stock solutions of the compounds (0.1 mM) were prepared in distilled water with 10% to 20% (v/v) DMSO (which is non-inhibitory at these concentrations), and dilutions up to 0.01 nM were made with distilled water. Inhibitor and enzyme solutions were preincubated together for 15 min at room temperature prior to the assay, in order to allow the formation of enzyme-inhibitor complex. The inhibition constants were obtained by nonlinear least square methods using PRISM 3 (GraphPad Software, La Jolla, CA, USA), and they represent the mean from at least three different determinations.

hCA II = hCA II (Homo sapiens, UniProt P00918); test: as above; format: biochemical; conditions: human (cloned) isozyme; CO2 hydration reaction at 20°C; n = 3
Experimental: as §1

[1] = Log D (1-octanol/phosphate buffer pH 7.4), shake flask method; format: physicochemical
Experimental: Determination of the distribution coefficient (log D1-octanol/phosphate buffer pH 7.4), was carried out by a shake flask method. An aliquot (25 μL) of the tracer agents ^18F]-(3), ^11C]-(4), ^18F]-(5), or ^11C]-(6) (185 to 555 kBq/mL) was added to a polypropylene tube (5 mL; Sarstedt, Nümbrecht, Germany) containing 2 mL of 0.025 M sodium phosphate buffer pH 7.4 and 2 mL of 1-octanol. The tube was vortexed for 2 min at room temperature followed by centrifugation at 3,000 rpm for 10 min (Eppendorf centrifuge 5810, Eppendorf, Westbury, NY, USA). Aliquots of 50 μL of the 1-octanol phase and 500 μL of the phosphate buffer phase were pipetted into separate tared Eppendorf tubes with adequate care to avoid cross contamination between the two phases. The samples were weighed, and radioactivity was quantified using an automated gamma counter. The experiments were carried out sixfold.

RBCs [2] = system: RBCs; parameters: method as in PMID 1647382, PMID 1647383; conditions: human volunteers, 24 h p.i.; cited from earlier work
RBCs [3] = system: RBCs; parameters: method as in PMID 1647382, PMID 1647383; conditions: rats, 24 h p.i.; cited from earlier work
[4] = Biodistribution studies in NMRI mice; format: in vivo; conditions: i.v.; for Percentage of ID, blood: blood mass assumed 7% of body mass
Experimental: The biodistribution studies were performed in wild-type NMRI mice with body weights ranging from 30 to 40 g. Mice were intravenously injected with 0.1 MBq of ^18F]-(3) or ^18F]-(5) and 5.5 MBq of ^11C]-(4) or ^11C]-(6) under anesthesia (2% isoflurane in O2 at a flow rate of 1 L/min). The animals were killed by decapitation at 2 min or 60 min p.i. (n = 4/time point for ^18F]-(3), ^11C]-(4), and ^11C]-(6); n = 6 for ^18F]-(5)). Blood was collected, and all major organs were dissected and collected in tarred tubes and were weighed. The radioactivity in each organ was counted using an automated gamma counter, corrected for background radioactivity and expressed as follows: percentage of the injected dose (% ID) or as standardized uptake value (SUV) (SUV = (Counts in tissue per gram of tissue) / (Injected counts per total body mass (g)). For the calculation of total radioactivity in the blood, blood mass was assumed to be 7% of the body mass.

[5] = Dynamic micro-PET scan in rats; format: in vivo, Wistar rat
Experimental: PET images were acquired on a FOCUS 220 tomograph (Siemens/Concorde Microsystems, Knoxville, TN, USA). During all scan sessions, rats were anesthetized (2.5% isoflurane in O2 at a flow rate of 1 L/min) and scanned in prone position. [^18F]-(5) (37 MBq) was administered via the tail vein, and a 1-h dynamic scan was acquired. The images were acquired in list mode and binned in sinograms using a 21-dynamic frame protocol (4 × 15, 4 × 60, 5 × 180, 8 × 300 s). Reconstruction was performed with the Focus 220 software (using Fourier rebinning, followed by two-dimensional (2D) OSEM algorithm), and data were analyzed using PMOD (version 2.65; PMOD, Zurich, Switzerland). The radioactivity concentration in the heart region was expressed as SUVs as a function of time after injection of the radiotracer.

Chain of hCA I (P00915 whole entry): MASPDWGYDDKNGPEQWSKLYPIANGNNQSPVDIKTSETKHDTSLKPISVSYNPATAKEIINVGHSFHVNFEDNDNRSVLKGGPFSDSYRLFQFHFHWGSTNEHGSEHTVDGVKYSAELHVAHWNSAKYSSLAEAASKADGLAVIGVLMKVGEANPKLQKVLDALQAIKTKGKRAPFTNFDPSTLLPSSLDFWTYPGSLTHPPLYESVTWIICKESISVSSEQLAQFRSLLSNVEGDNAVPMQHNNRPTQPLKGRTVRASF

Compound: NS(=O)(=O)c1ccc(I)cc1 [p-iodobenzenesulfonamide]
- Activity associated with RBCs (RBCs [2]): more than 88 % of the ID
- Activity associated with RBCs (RBCs [3]): about 50 % of the injected dose

Compound: NS(=O)(=O)c1ccc(OCC[18F])cc1 [[^18F]-(5), 4-(2-[^18F]fluoroethoxy)benzenesulfonamide]
- Percentage of ID, brain ([4]; 2 min p.i.): 0.3 ± 0.0 % ID
- Percentage of ID, carcass ([4]; 2 min p.i.): 18.8 ± 1.6 % ID
- Percentage of ID, heart ([4]; 2 min p.i.): 0.6 ± 0.1 % ID
- Percentage of ID, intestines ([4]; 2 min p.i.): 2.9 ± 0.4 % ID
- Percentage of ID, kidneys ([4]; 2 min p.i.): 4.1 ± 0.8 % ID
- Percentage of ID, liver ([4]; 2 min p.i.): 6.0 ± 1.1 % ID
- Percentage of ID, lungs ([4]; 2 min p.i.): 7.3 ± 3.9 % ID
- Percentage of ID, spleen + pancreas ([4]; 2 min p.i.): 1.1 ± 0.1 % ID
- Percentage of ID, stomach ([4]; 2 min p.i.): 0.8 ± 0.2 % ID
- Percentage of ID, urine ([4]; 2 min p.i.): 0.3 ± 0.1 % ID
- SUV, blood ([4]; 2 min p.i.): 17.3 ± 2.5
- SUV, brain ([4]; 2 min p.i.): 0.5 ± 0.1
- SUV, heart ([4]; 2 min p.i.): 1.6 ± 0.4
- SUV, kidneys ([4]; 2 min p.i.): 3.1 ± 0.6
- SUV, liver ([4]; 2 min p.i.): 1.4 ± 0.3
- SUV, lungs ([4]; 2 min p.i.): 9.3 ± 2.9
- SUV, spleen ([4]; 2 min p.i.): 2.1 ± 0.7
- Percentage of ID, blood ([4]; 2 min p.i.): 106.3 ± 5.2 % ID
- Percentage of ID, brain ([4]; 60 min p.i.): 1.0 ± 0.1 % ID
- Percentage of ID, carcass ([4]; 60 min p.i.): 22.4 ± 1.5 % ID
- Percentage of ID, heart ([4]; 60 min p.i.): 0.6 ± 0.2 % ID
- Percentage of ID, intestines ([4]; 60 min p.i.): 9.6 ± 2.8 % ID
- Percentage of ID, kidneys ([4]; 60 min p.i.): 3.7 ± 1.1 % ID
- Percentage of ID, liver ([4]; 60 min p.i.): 4.0 ± 0.2 % ID
- Percentage of ID, lungs ([4]; 60 min p.i.): 1.8 ± 0.6 % ID
- Percentage of ID, spleen + pancreas ([4]; 60 min p.i.): 0.9 ± 0.4 % ID
- Percentage of ID, stomach ([4]; 60 min p.i.): 4.2 ± 3.1 % ID
- SUV, blood ([4]; 60 min p.i.): 11.1 ± 1.2
- SUV, brain ([4]; 60 min p.i.): 1.4 ± 0.2
- SUV, heart ([4]; 60 min p.i.): 1.7 ± 0.5
- SUV, kidneys ([4]; 60 min p.i.): 2.5 ± 0.4
- SUV, liver ([4]; 60 min p.i.): 1.0 ± 0.1
- SUV, lungs ([4]; 60 min p.i.): 3.8 ± 0.4
- SUV, spleen ([4]; 60 min p.i.): 2.2 ± 0.8
- Percentage of ID, blood ([4]; 60 min p.i.): 71.0 ± 14.5 % ID
- Average SUV ratio heart-to-kidney ([5]; micro-PET): 2.5
- Average SUV ratio heart-to-liver ([5]; micro-PET): 4
- Average SUV ratio heart-to-spleen ([5]; micro-PET): 2.3
- Bone uptake (in vivo defluorination) ([5]; micro-PET): no bone uptake was observed
- Heart region SUV at 60 min relative to the 2-min value ([5]; micro-PET): 75%
- SUV, heart ([5]; micro-PET time activity curves, 37 MBq i.v.): 2.5

Compound: COc1ccc(S(N)(=O)=O)cc1 [(6)]
- Ki (hCA I): 24700 nM
- Ki (hCA II): 422 nM
- logD [1]: 0.42

Compound: NS(=O)(=O)c1ccc(OCCF)cc1 [(5)]
- Ki (hCA I): 30900 nM
- Ki (hCA II): 336 nM
- logD [1]: 0.32

The remaining lines, values ahead:

- Ki (hCA I): 390 nM
- Ki (hCA II): 20 nM
- logD [1]: 1.19
Compound: COc1ccc(C(=O)NCCc2ccc(S(N)(=O)=O)cc2)cc1 [(4)]

- Ki (hCA I): 96 nM
- Ki (hCA II): 8 nM
- logD [1]: 1.13
Compound: NS(=O)(=O)c1ccc(CCNC(=O)c2ccc(OCCF)cc2)cc1 [(3)]

- Ki (hCA II): 8 nM
- Percentage of ID, brain ([4]; 2 min p.i.): 0.2 ± 0.0 % ID
- Percentage of ID, carcass ([4]; 2 min p.i.): 18.10 ± 2.32 % ID
- Percentage of ID, heart ([4]; 2 min p.i.): 0.8 ± 0.0 % ID
- Percentage of ID, intestines ([4]; 2 min p.i.): 5.9 ± 0.8 % ID
- Percentage of ID, kidneys ([4]; 2 min p.i.): 10.6 ± 0.8 % ID
- Percentage of ID, liver ([4]; 2 min p.i.): 15.8 ± 1.5 % ID
- Percentage of ID, lungs ([4]; 2 min p.i.): 2.3 ± 0.5 % ID
- Percentage of ID, spleen + pancreas ([4]; 2 min p.i.): 1.3 ± 0.2 % ID
- Percentage of ID, stomach ([4]; 2 min p.i.): 0.7 ± 0.1 % ID
- Percentage of ID, urine ([4]; 2 min p.i.): 0.2 ± 0.1 % ID
- SUV, blood ([4]; 2 min p.i.): 10.1 ± 0.6
- SUV, brain ([4]; 2 min p.i.): 0.2 ± 0.0
- SUV, heart ([4]; 2 min p.i.): 2.3 ± 1.3
- SUV, kidneys ([4]; 2 min p.i.): 5.6 ± 0.6
- SUV, liver ([4]; 2 min p.i.): 3.2 ± 0.2
- SUV, lungs ([4]; 2 min p.i.): 3.5 ± 1.0
- SUV, spleen ([4]; 2 min p.i.): 1.6 ± 0.2
- Percentage of ID, blood ([4]; 2 min p.i.): 71.0 ± 4.3 % ID
- Percentage of ID, brain ([4]; 60 min p.i.): 0.2 ± 0.1 % ID
- Percentage of ID, carcass ([4]; 60 min p.i.): 31.35 ± 3.67 % ID
- Percentage of ID, heart ([4]; 60 min p.i.): 0.2 ± 0.2 % ID
- Percentage of ID, intestines ([4]; 60 min p.i.): 18.6 ± 1.0 % ID
- Percentage of ID, kidneys ([4]; 60 min p.i.): 2.8 ± 0.1 % ID
- Percentage of ID, liver ([4]; 60 min p.i.): 8.3 ± 1.2 % ID
- Percentage of ID, lungs ([4]; 60 min p.i.): 0.7 ± 0.3 % ID
- Percentage of ID, spleen + pancreas ([4]; 60 min p.i.): 0.9 ± 0.3 % ID
- Percentage of ID, stomach ([4]; 60 min p.i.): 1.9 ± 1.3 % ID
- SUV, blood ([4]; 60 min p.i.): 4.5 ± 0.3
- SUV, brain ([4]; 60 min p.i.): 0.1 ± 0.0
- SUV, heart ([4]; 60 min p.i.): 0.5 ± 0.4
- SUV, kidneys ([4]; 60 min p.i.): 1.6 ± 0.1
- SUV, liver ([4]; 60 min p.i.): 1.7 ± 0.3
- SUV, lungs ([4]; 60 min p.i.): 1.1 ± 0.4
- SUV, spleen ([4]; 60 min p.i.): 1.1 ± 0.3
- Percentage of ID, blood ([4]; 60 min p.i.): 32 % ID and 31.7 ± 2.1 % ID
Compound: NS(=O)(=O)c1ccc(CCNC(=O)c2ccc(OCC[18F])cc2)cc1 [[^18F]-(3), 4-(2-[^18F]fluoroethoxy)benzoyl aminoethylbenzenesulfonamide]
